In the supplement of paper PMC10307832:

What was measured:
Experiment in all cases: relative viability (nuclei count vs DMSO), 5 days (fraction); higher = more cells survive
[1] = compound: C/C(=N\NC(=S)N1CCC1)/C2=CC=CC=N2 + Cc1cc(Nc2cc(N3CCN(C)CC3)nc(Sc3ccc(NC(=O)C4CC4)cc3)n2)n[nH]1 [Tozasertib] (partner 0.1 µM)
In short: (§1)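 Dosing by pin tool came one day after lung cancer cell lines were seeded in 1536-well plates, using either one drug or a fixed anchor-drug dose plus five library-drug doses (not always all listed) in √10 steps. After 5 days, nuclei were counted on 4× images. Relative viability is treated-well nuclei count divided by vehicle-well nuclei count, and values are medians of duplicate plates.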

[2] = compound: C/C(=N\NC(=S)N1CCC1)/C2=CC=CC=N2 + Cc1nc(Nc2ncc(C(=O)Nc3c(C)cccc3Cl)s2)cc(N2CCN(CCO)CC2)n1 [Dasatinib] (partner 0.075 µM)
In short: as §1

[3] = compound: C/C(=N\NC(=S)N1CCC1)/C2=CC=CC=N2 + Cc1nc(NC(=O)N2CCC[C@H]2C(N)=O)sc1-c1ccnc(C(C)(C)C(F)(F)F)c1 [Alpelisib] (partner 2 µM)
In short: as §1

[4] = compound: C/C(=N\NC(=S)N1CCC1)/C2=CC=CC=N2 + CCNC(=O)c1noc(-c2cc(C(C)C)c(O)cc2O)c1-c1ccc(CN2CCOCC2)cc1 [Luminespib] (partner 0.01 µM)
In short: as §1

Cell Line	relative viability ([1]; first compound 0.05 µM)	relative viability ([1]; first compound 0.1581 µM)	relative viability ([1]; first compound 0.5 µM)	relative viability ([1]; first compound 1.581 µM)	relative viability ([1]; first compound 5 µM)	relative viability ([2]; first compound 0.05 µM)	relative viability ([2]; first compound 0.1581 µM)	relative viability ([2]; first compound 0.5 µM)	relative viability ([2]; first compound 1.581 µM)	relative viability ([2]; first compound 5 µM)	relative viability ([3]; first compound 0.05 µM)	relative viability ([3]; first compound 0.1581 µM)	relative viability ([3]; first compound 0.5 µM)	relative viability ([3]; first compound 1.581 µM)	relative viability ([3]; first compound 5 µM)	relative viability ([4]; first compound 0.05 µM)	relative viability ([4]; first compound 0.1581 µM)	relative viability ([4]; first compound 0.5 µM)	relative viability ([4]; first compound 1.581 µM)	relative viability ([4]; first compound 5 µM)
PC-3 [JPC-3]	0.612	0.474	0.3	0.281	0.241	0.252	0.281	0.238	0.235	0.188	0.556	1.03	0.341	0.282	0.208	0.354	0.415	0.257	0.232	0.216
PC-14	0.0506	0.0536	0.0474	0.05	0.0386	0.0371	0.0372	0.0336	0.023	0.0224	0.108	0.0754	0.067	0.0556	0.0881	0.104	0.126	0.112	0.0879	0.095
RERF-LC-KJ	0.203	0.208	0.246	0.217	0.242	0.258	0.25	0.266	0.219	0.245	0.212	0.234	0.23	0.205	0.256	0.343	0.306	0.272	0.265	0.294
SK-LU-1	0.141	0.124	0.174	0.0952	0.136	0.123	0.139	0.145	0.0978	0.114	0.209	0.163	0.19	0.146	0.196	0.154	0.133	0.176	0.156	0.178
SK-MES-1	0.22	0.188	0.183	0.158	0.147	0.145	0.155	0.133	0.107	0.126	0.203	0.205	0.188	0.165	0.183	0.169	0.155	0.175	0.152	0.189
SW 1573	0.0614	0.0887	0.0999	0.0752	0.0626	0.0654	0.0445	0.0863	0.0351	0.0432	0.107	0.155	0.169	0.1	0.0847	0.0763	0.116	0.104	0.0921	0.0745
UMC-11	0.196	0.177	0.196	0.192	0.185	0.231	0.186	0.153	0.138	0.146	0.235	0.182	0.153	0.117	0.126	0.207	0.194	0.199	0.184	0.176
